For 28 compounds, IC50 results are on record in patent publication US10562914B2, “Imidazoles as histone demethylase inhibitors” (Istituto Europeo di Oncologia S.r.l., priority 2016, dated 2020).

Where a name gives a salt, the structure may show the parent alone.

The target in test [1] is T1, human recombinant KDM1A/CoREST protein (Homo sapiens, UniProt O60341).
T1 construct: made in house; host or cells: E. coli
The test is described as follows: Assay of enzyme inhibition of KDM1A (LSD1), TR-FRET. The format is biochemical. Particulars: 0.25 nM KDM1A/CoREST, 50 nM H3K4 monomethylated peptide, 20 min at RT. The procedure: 2.1 Assay of Enzyme Inhibition of KDM1A (LSD1)
The intensity of the light emission is proportional to the level of biotinylated reaction product. The complex of human recombinant KDM1A/CoREST protein was produced in E. coli as separate proteins and co-purified as previously described.
Demethylase reaction was started by the addition of 50 nM histone H3K4 monomethylated.
The resulting mixture was incubated in the dark for 1 h at RT. Then, TR-FRET signal was read by a fluorimeter (Infinite® F200, Tecan, Männedorf, Swirzerland) (Excitation 320 nm, Emission 665 nm and 620 nm, delay time 50 μs, window time 100 μs).
The inhibitor concentrations ranged from 0.025 to 500 μM (serial 1:3 dilutions). The IC50 was calculated using GraphPad Software.
A general note: Time-resolved FRET reads energy transfer from a long-lived donor to a nearby acceptor.

A further test deals with human leukemia NB4 cells. The test is described as follows: Cell growth, CellTiter-Fluor viability assay, NB4. Particulars: NB-4, 48 h incubation, read-out: IC50 against human leukemia NB4 cells. The format is cell-based. The text has this:
(§1) CellTiter-Flor® (Promega) is as a nonlytic, single-reagent-addition fluorescence assay that measures the relative number of living cells in a culture population after experimental manipulation. The CellTiter-Fluor™ Cell Viability Assay measures the conserved and constitutive protease activity within live cells and therefore acts as a marker for cell viability.
(§2) Human leukemia MV4-11 cells, (obtained from the Deutsche Sammlung von Mikroorganismen und Zellkulturen, ACC 102) or NB4 cells, (obtained from the Deutsche Sammlung von Mikroorganismen und Zellkulturen) in exponential growth, were incubated for 48 h with different concentrations of the inhibitors. After 48 h a volume of CellTiter-Fluor® Reagent equal to one fifth of volume of cell culture medium was added. The content was mixed and incubates for at least 90 min at 37° C. degree to obtain a stable signal. The fluorescence was recorded using an excitation wavelength of 360 nm and an emission at 535 nm. The IC50 was calculated using GraphPad Software.

For test [2], the system named is Human leukemia MV4-11 cells. The test is described as follows: Cell growth, CellTiter-Fluor viability assay, MV4-11. Format: cell-based. Particulars: 48 h incubation, read-out: IC50 against human leukemia MV4-11 cells.
Text: as §1, §2

Take `CCc1cnc(-c2cc3sccc3n2C)n1CCCc1ccc(OCC2CCNCC2)c(OCC2CCNCC2)c1` [Example 57, 5-[1-[3-[3,4-bis(4-piperidylmethoxy)phenyl]propyl]-5-ethyl-imidazol-2-yl]-4-methyl-thieno[3,2-b]pyrrole dihydrochloride]: the IC50 (usually the midpoint of a concentration-inhibition curve) was less than 100 nM in test [1] and less than 10000 nM with human leukemia NB4 cells.
Taken in the same sequence, the figures for `CCCc1c(-c2ccccc2)nc(-c2cc3sccc3n2C)n1CCOc1ccc(OC2CCNCC2)cc1` [Example 41, 4-methyl-5-[4-phenyl-1-[2-[4-(4-piperidyloxy)phenoxy]ethyl]-5-propyl-imidazol-2-yl]thieno[3,2-b]pyrrole] were less than 100 nM and less than 10000 nM.
Turning to `CC(C)c1[nH]c(-c2cc3sccc3n2C)nc1-c1ccccc1` [Example 10, 5-(5-isopropyl-4-phenyl-1H-imidazol-2-yl)-4-methyl-thieno[3,2-b]pyrrole], the IC50 in test [1] was less than 1000 nM.
Consider `CCc1[nH]c(-c2cc3sccc3n2C)nc1-c1ccccc1` [Example 9, 5-(5-ethyl-4-phenyl-1H-imidazol-2-yl)-4-methyl-thieno[3,2-b]pyrrole], for which the IC50 in test [1] is less than 1000 nM.
As to `Cn1c(-c2ncc(C3CCC3)n2CCCc2ccc(OC3CCNCC3)cc2)cc2sccc21` [Example 50, 5-[5-cyclobutyl-1-[3-[4-(4-piperidyloxy)phenyl]propyl]imidazol-2-yl]-4-methyl-thieno[3,2-b]pyrrole], the IC50 is less than 100 nM in test [1] and less than 10000 nM in the test on human leukemia NB4 cells.
Taken in the same sequence, the figures for `CCc1nc(-c2cc3sccc3n2C)n(CCCc2ccc(OC3CCNCC3)cc2)c1-c1ccccc1` [Example 47, 5-[4-ethyl-5-phenyl-1-[3-[4-(4-piperidyloxy)phenyl]propyl]imidazol-2-yl]-4-methyl-thieno[3,2-b]pyrrole hydrochloride] were less than 100 nM and less than 10000 nM.
Take `CCc1cn(CCOc2cccc(OC3CCCNCC3)c2)c(-c2cc3sccc3n2C)n1` (centres unmarked) [Example 34, 5-[1-[2-[3-(azepan-4-yloxy)phenoxy]ethyl]-4-ethyl-imidazol-2-yl]-4-methyl-thieno[3,2-b]pyrrole hydrochloride]: the IC50 in test [1] was less than 100 nM.
In the case of `CCc1cn(CCCc2ccc(OC3CCNCC3)cc2)c(-c2cc3sccc3n2C)n1` [Example 27, 5-[4-ethyl-1-[3-[4-(4-piperidyloxy)phenyl]propyl]imidazol-2-yl]-4-methyl-thieno[3,2-b]pyrrole hydrochloride], the IC50 is less than 20000 nM with human leukemia NB4 cells and less than 10000 nM in test [2].
In the case of `Cn1c(-c2ncc(C3CCC3)n2CCOc2ccc(OC3CCCNCC3)cc2)cc2sccc21` (centres unmarked) [Example 37, 5-[1-[2-[4-(azepan-4-yloxy)phenoxy]ethyl]-5-cyclobutyl-imidazol-2-yl]-4-methyl-thieno[3,2-b]pyrrole], the half-inhibitory concentration (IC50) in test [1] was less than 100 nM.
Regarding `CCCc1cnc(-c2cc3sccc3n2C)n1CCOc1ccc(OC2CCNCC2)cc1` [Example 54, 4-methyl-5-[1-[2-[4-(4-piperidyloxy)phenoxy]ethyl]-5-propyl-imidazol-2-yl]thieno[3,2-b]pyrrole], the IC50 in test [1] is less than 100 nM.
Consider `CCc1cn(CCCc2ccc(OCC3CCNCC3)c(OCC3CCNCC3)c2)c(-c2cc3sccc3n2C)n1` [Example 52, 5-[1-[3-[3,4-bis(4-piperidylmethoxy)phenyl]propyl]-4-ethyl-imidazol-2-yl]-4-methyl-thieno[3,2-b]pyrrole dihydrochloride], for which the half-inhibitory concentration (IC50) in test [1] was less than 100 nM.
On to `CCc1cn(CCOc2ccc(OC3CCNCC3)cc2)c(-c2cc3ccsc3n2C)n1` [Example 39, 5-[4-ethyl-1-[2-[4-(4-piperidyloxy)phenoxy]ethyl]imidazol-2-yl]-6-methyl-thieno[2,3-b]pyrrole], for which the values for the IC50 (in test [1]; in the test on human leukemia NB4 cells) were less than 100 nM and less than 10000 nM, respectively.
Regarding `Cn1c(-c2nc(C3CCC3)cn2CCCc2ccc(OC3CCNCC3)cc2)cc2sccc21` [Example 49, 5-[4-cyclobutyl-1-[3-[4-(4-piperidyloxy)phenyl]propyl]imidazol-2-yl]-4-methyl-thieno[3,2-b]pyrrole hydrochloride], the IC50 in the test with human leukemia NB4 cells is less than 10000 nM.
With `CCc1cn(CCCc2ccc(OCC3CCNCC3)cc2)c(-c2cc3sccc3n2C)n1` [Example 42, 5-[4-ethyl-1-[3-[4-(4-piperidylmethoxy)phenyl]propyl]imidazol-2-yl]-4-methyl-thieno[3,2-b]pyrrole hydrochloride], in the test on human leukemia NB4 cells, the IC50 is less than 10000 nM.
For `CCc1cn(CCc2ccc(OC3CCNCC3)cc2)c(-c2cc3sccc3n2C)n1` [Example 58, 5-[4-ethyl-1-[2-[4-(4-piperidyloxy)phenyl]ethyl]imidazol-2-yl]-4-methyl-thieno[3,2-b]pyrrole], the IC50 in test [1] is less than 100 nM.
The same measure, in the same setting: the same measure for `CCc1cnc(-c2cc3sccc3n2C)n1CCOc1cccc(OC2CCCNCC2)c1` (centres unmarked) [Example 35, 5-[1-[2-[3-(azepan-4-yloxy)phenoxy]ethyl]-5-ethyl-imidazol-2-yl]-4-methyl-thieno[3,2-b]pyrrole hydrochloride]: less than 100 nM.
`CCc1c(-c2ccccc2)nc(-c2cc3sccc3n2C)n1CCCc1ccc(OC2CCNCC2)cc1` [Example 46, 5-[5-ethyl-4-phenyl-1-[3-[4-(4-piperidyloxy)phenyl]propyl]imidazol-2-yl]-4-methyl-thieno[3,2-b]pyrrole hydrochloride]: the IC50 is less than 100 nM in test [1] and less than 10000 nM in the test on human leukemia NB4 cells.
For the compound `CCn1c(-c2nc(C3CCC3)c[nH]2)cc2sccc21` [Example 12, 5-(4-cyclobutyl-1H-imidazol-2-yl)-4-ethyl-thieno[3,2-b]pyrrole], the half-maximal inhibitory concentration (IC50) in test [1] is less than 1000 nM.
Consider `CC(C)c1nc(-c2cc3sccc3n2C)n(CCOc2ccc(OC3CCNCC3)cc2)c1-c1ccccc1` [Example 48, 5-[4-isopropyl-5-phenyl-1-[2-[4-(4-piperidyloxy)phenoxy]ethyl]imidazol-2-yl]-4-methyl-thieno[3,2-b]pyrrole], for which the IC50 was less than 100 nM in test [1] and less than 10000 nM in the test with human leukemia NB4 cells.
Consider `CCc1cn(CCCc2ccc(OC3CCCNCC3)cc2)c(-c2cc3sccc3n2C)n1` (centres unmarked) [Example 44, 5-[1-[3-[4-(azepan-4-yloxy)phenyl]propyl]-4-ethyl-imidazol-2-yl]-4-methyl-thieno[3,2-b]pyrrole hydrochloride], for which the IC50 in the test on human leukemia NB4 cells is less than 10000 nM.
Regarding `CCCc1nc(-c2cc3sccc3n2C)n(CCOc2ccc(OC3CCNCC3)cc2)c1-c1ccccc1` [Example 40, 4-methyl-5-[5-phenyl-1-[2-[4-(4-piperidyloxy)phenoxy]ethyl]-4-propyl-imidazol-2-yl]thieno[3,2-b]pyrrole hydrochloride], the IC50 was less than 100 nM in test [1] and less than 10000 nM in the test with human leukemia NB4 cells.
Turning to `CCc1cn(CCOc2ccc(OC3CCCNCC3)cc2)c(-c2cc3sccc3n2C)n1` (centres unmarked) [Example 25, 5-[1-[2-[4-(azepan-4-yloxy)phenoxy]ethyl]-4-ethyl-imidazol-2-yl]-4-methyl-thieno[3,2-b]pyrrole hydrochloride], the IC50 is less than 20000 nM with human leukemia NB4 cells and less than 10000 nM in test [2].
In the case of `CCc1cnc(-c2cc3sccc3n2C)n1CCCc1ccc(OC2CCCNCC2)cc1` (centres unmarked) [Example 45, 5-[1-[3-[4-(azepan-4-yloxy)phenyl]propyl]-5-ethyl-imidazol-2-yl]-4-methyl-thieno[3,2-b]pyrrole hydrochloride], the IC50 in test [1] was less than 100 nM; with human leukemia NB4 cells, less than 10000 nM.
Taken in the same sequence, the figures for `CCc1cnc(-c2cc3sccc3n2C)n1CCCc1ccc(OCC2CCNCC2)cc1` [Example 43, 5-[5-ethyl-1-[3-[4-(4-piperidylmethoxy)phenyl]propyl]imidazol-2-yl]-4-methyl-thieno[3,2-b]pyrrole] were less than 100 nM and less than 10000 nM.
For `CCc1cn(CCOc2ccc(OC3CCNCC3)cc2)c(-c2cc3sccc3n2C)n1` [Example 20, 5-[4-ethyl-1-[2-[4-(4-piperidyloxy)phenoxy]ethyl]imidazol-2-yl]-4-methyl-thieno[3,2-b]pyrrole hydrochloride], the concentration for half-maximal inhibition (IC50) in the test with human leukemia NB4 cells is less than 20000 nM; in test [2], less than 10000 nM.
With `Cn1c(-c2ncc(C3CCC3)n2CCCc2ccc(OCC3CCNC3)cc2)cc2sccc21` (centres unmarked) [Example 60, 5-[5-cyclobutyl-1-[3-[4-(pyrrolidin-3-ylmethoxy)phenyl]propyl]imidazol-2-yl]-4-methyl-thieno[3,2-b]pyrrole], the IC50 in test [1] was less than 100 nM.
On to `Cn1c(-c2nc(-c3ccccc3)cn2CCCc2ccc(OC3CCNCC3)cc2)cc2sccc21` [Example 51, 4-methyl-5-[4-phenyl-1-[3-[4-(4-piperidyloxy)phenyl]propyl]imidazol-2-yl]thieno[3,2-b]pyrrole hydrochloride], for which the IC50 in test [1] is less than 100 nM.
As for `Cn1c(-c2ncc(C3CCC3)n2CCCc2ccc(OC3CCCNCC3)cc2)cc2sccc21` (centres unmarked) [Example 62, 5-[1-[3-[4-(azepan-4-yloxy)phenyl]propyl]-5-cyclobutyl-imidazol-2-yl]-4-methyl-thieno[3,2-b]pyrrole hydrochloride], the IC50 in test [1] is less than 100 nM.
